Source: US20050002947A1, “In vitro bioassay employing laboratory-cultured larvae of strongyloides stercoralis” (University of the West Indies, priority 2003, published 2005)

Key:
S. stercoralis larvae [1] = experiment: Dye exclusion test using eosin to tell live from killed larvae; type: cell-based; conditions: for Percentage of S. stercoralis larvae stained using eosin in vitro: n~100
Method: Dye exclusion tests have been used successfully to indicate viability in parasitic platyhelminths, and similar testing can be applied to S. stercoralis larvae. Use of 0.01% v/v eosin in LNS (ELNS) in a dye exclusion test indicated death of larvae in less than 10 minutes, and 0.01-0.03% ELNS had no effect on healthy individuals. The larvae typically survive for more than 100 hours in ELNS. Accordingly, LNS is a preferred medium in which to maintain larvae harvested from multiplication in coproculture and ELNS is a preferred medium for evaluating the effects of physiologically active materials, such as candidate anthelmintic materials, on the larvae. However, the skilled practitioner will recognize that any medium in which the larvae can be maintained for a convenient period of time, and any appropriate vital staining dye, can be used in the method of the invention.
The results of a comparative test to establish the ability of a dye exclusion procedure using eosin to discriminate between live and killed larvae are presented in Table 1 below. FIG. 1 is a photomicrograph of a microscopic inspection field showing a number of larvae of S. stercoralis after exposure to an anthelmintic agent.

S. stercoralis larvae [2] = experiment: Larval tolerance to emulsifiers; type: cell-based
From the text: Triton® X-100 (octylphenoxy polyethoxyethanol) is recommended for use as an emulsifier, where necessary. A concentration of 1-4% in 0.01% ELNS had no effect on larval mobility or mortality.
Other suitable surfactants for dispersing plant extracts can be developed by routine testing according to the described procedures.

S. stercoralis larvae [3] = experiment: Larval tolerance to methanol (solvent); type: cell-based, Strongyloides stercoralis; conditions: aqueous solutions containing methanol; cumulative percentage mortality
Method: Active constituents of plants are typically extracted in organic solvents such as methanol. […] Studies of methanol toxicity for S. stercoralis indicate that a methanol concentration exceeding 5 μg/100 mL LNS (>50 times that detected in plant extracts using NMR analyses) is required to exert any significant effect on larval mortality.

## O=C1OC2(c3ccccc31)c1cc(Br)c(O)c(Br)c1Oc1c2cc(Br)c(O)c1Br [eosin]
S. stercoralis larvae [1]; 0.01% v/v eosin in LNS
  Time in which the dye exclusion test indicated death of larvae: less than 10 minutes
S. stercoralis larvae [1]; heat killed larvae (60° C./30 min), eosin 0.01% (w/v), 0 min
  Percentage of S. stercoralis larvae stained using eosin in vitro: 0%
S. stercoralis larvae [1]; heat killed larvae (60° C./30 min), eosin 0.01% (w/v), 10 min
  Percentage of S. stercoralis larvae stained using eosin in vitro: 100%
S. stercoralis larvae [1]; heat killed larvae (60° C./30 min), eosin 0.03% (w/v), 0 min
  Percentage of S. stercoralis larvae stained using eosin in vitro: 0%
S. stercoralis larvae [1]; heat killed larvae (60° C./30 min), eosin 0.03% (w/v), 10 min
  Percentage of S. stercoralis larvae stained using eosin in vitro: 100%
S. stercoralis larvae [1]; living larvae, eosin 0.01% (w/v), 0 min
  Percentage of S. stercoralis larvae stained using eosin in vitro: 0%
S. stercoralis larvae [1]; living larvae, eosin 0.01% (w/v), 10 min
  Percentage of S. stercoralis larvae stained using eosin in vitro: 1%
S. stercoralis larvae [1]; living larvae, eosin 0.01% (w/v), 20 min
  Percentage of S. stercoralis larvae stained using eosin in vitro: 1%
S. stercoralis larvae [1]; living larvae, eosin 0.01% (w/v), 30 min
  Percentage of S. stercoralis larvae stained using eosin in vitro: 2%
S. stercoralis larvae [1]; living larvae, eosin 0.01% (w/v), 40 min
  Percentage of S. stercoralis larvae stained using eosin in vitro: 2%
S. stercoralis larvae [1]; living larvae, eosin 0.01% (w/v), 50 min
  Percentage of S. stercoralis larvae stained using eosin in vitro: 2%
S. stercoralis larvae [1]; living larvae, eosin 0.01% (w/v), 60 min
  Percentage of S. stercoralis larvae stained using eosin in vitro: 2%
S. stercoralis larvae [1]; living larvae, eosin 0.01% (w/v), column headed only "(min)", after 60
  Percentage of S. stercoralis larvae stained using eosin in vitro: 2%
S. stercoralis larvae [1]; living larvae, eosin 0.03% (w/v), 0 min
  Percentage of S. stercoralis larvae stained using eosin in vitro: 0%
S. stercoralis larvae [1]; living larvae, eosin 0.03% (w/v), 10 min
  Percentage of S. stercoralis larvae stained using eosin in vitro: 1%
S. stercoralis larvae [1]; living larvae, eosin 0.03% (w/v), 20 min
  Percentage of S. stercoralis larvae stained using eosin in vitro: 1%
S. stercoralis larvae [1]; living larvae, eosin 0.03% (w/v), 30 min
  Percentage of S. stercoralis larvae stained using eosin in vitro: 2%
S. stercoralis larvae [1]; living larvae, eosin 0.03% (w/v), 40 min
  Percentage of S. stercoralis larvae stained using eosin in vitro: 2%
S. stercoralis larvae [1]; living larvae, eosin 0.03% (w/v), 50 min
  Percentage of S. stercoralis larvae stained using eosin in vitro: 2%
S. stercoralis larvae [1]; living larvae, eosin 0.03% (w/v), 60 min
  Percentage of S. stercoralis larvae stained using eosin in vitro: 2%
S. stercoralis larvae [1]; living larvae, eosin 0.03% (w/v), column headed only "(min)", after 60
  Percentage of S. stercoralis larvae stained using eosin in vitro: 3%

## octylphenoxy polyethoxyethanol [Triton® X-100]
S. stercoralis larvae [2]; 1-4% in 0.01% ELNS
  Effect on larval mobility: no effect
  Effect on larval mortality: no effect

## CO [methanol]
S. stercoralis larvae [3]
  Methanol concentration required to exert any significant effect on larval mortality: exceeding 5 μg/100 mL LNS

## Tween® 20
S. stercoralis larvae [2]; 0.1-0.4% in 0.1% ELNS
  Toxicity to S. stercoralis larvae: toxic
